# Assay results taken from PMC10583824, “The rational design of ARUK2007145, a dual inhibitor of the α and γ isoforms of the lipid kinase phosphatidylinositol 5-phosphate 4-kinase (PI5P4K)” (RSC Medicinal Chemistry, 2023).
# Assays:
# [1] = Turbidimetric aqueous solubility; type: physicochemical; conditions: pH 7.4, turbidimetric
# Experimental: (§1) ADMET experimental methods […]
# Turbidimetric aqueous solubility: analysis was performed by Cyprotex Discovery. Compound in DMSO at 10 mM was serially diluted to solutions of 0.1, 0.3, 1 and 3 mM in DMSO, then further diluted 1 in 100 in buffer (0.01 M PBS, pH 7.4, 1% DMSO final). 7 replicate wells of each dilution were equilibrated for 2 hours at 37 °C before absorbance is measured at 620 nm. The solubility is estimated from the concentration of test compound that produces an increase in absorbance above vehicle control (1% DMSO in buffer). […]
# [2] = Mouse liver microsome stability; type: in vitro ADME; conditions: mouse liver microsomes half-life; read-out: MLM t½
# Experimental: as §1
# Mouse Microsomal stability: analysis was performed by Cyprotex Discovery. Briefly, test compounds in DMSO
# protein/mL) in the presence of NADPH (1 mM) at 37 °C. Aliquots were taken at time intervals (0, 5, 15, 30 and
# compound remaining, allowing the determination of the half-life for the compound.
# [3] = target: T1, PI5P4Kα (Homo sapiens, UniProt P48426); conditions: for PI5P4Kα pIC50: ADP-Glo, footnote a: inconsistent replicates, value shown is upper limit
# T1 sequence (P48426 1-406): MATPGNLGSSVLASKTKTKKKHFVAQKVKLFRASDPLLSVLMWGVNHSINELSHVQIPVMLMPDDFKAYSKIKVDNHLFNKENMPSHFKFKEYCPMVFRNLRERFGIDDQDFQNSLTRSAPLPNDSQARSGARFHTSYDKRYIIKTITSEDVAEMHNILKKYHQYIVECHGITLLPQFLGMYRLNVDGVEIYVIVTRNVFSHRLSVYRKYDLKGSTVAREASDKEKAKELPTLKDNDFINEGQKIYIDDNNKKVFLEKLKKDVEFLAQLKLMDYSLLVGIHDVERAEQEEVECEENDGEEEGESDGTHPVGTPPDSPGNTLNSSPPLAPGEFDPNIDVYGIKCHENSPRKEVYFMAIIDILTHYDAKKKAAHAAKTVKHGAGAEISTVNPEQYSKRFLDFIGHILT
# [4] = target: T1, PI5P4Kα; assay: biochemical; conditions: ADP-Glo pIC50 PI5P4Kα, Table S1, two decimals; asterisk not explained
# [5] = target: T2, PI5P4Kγ+ (Homo sapiens, UniProt Q8TBX8, D138G/D197E/E133P/E135D/E153T/E196G/G139A/N195G/S132L/S134N); assay: biochemical
# T2 sequence (Q8TBX8 with tags, fused parts or gaps INS131LPN/S132D/E133S/S134Q/E135A/G136R/D138G/G139A/E153T/N195G/E196G/D197E): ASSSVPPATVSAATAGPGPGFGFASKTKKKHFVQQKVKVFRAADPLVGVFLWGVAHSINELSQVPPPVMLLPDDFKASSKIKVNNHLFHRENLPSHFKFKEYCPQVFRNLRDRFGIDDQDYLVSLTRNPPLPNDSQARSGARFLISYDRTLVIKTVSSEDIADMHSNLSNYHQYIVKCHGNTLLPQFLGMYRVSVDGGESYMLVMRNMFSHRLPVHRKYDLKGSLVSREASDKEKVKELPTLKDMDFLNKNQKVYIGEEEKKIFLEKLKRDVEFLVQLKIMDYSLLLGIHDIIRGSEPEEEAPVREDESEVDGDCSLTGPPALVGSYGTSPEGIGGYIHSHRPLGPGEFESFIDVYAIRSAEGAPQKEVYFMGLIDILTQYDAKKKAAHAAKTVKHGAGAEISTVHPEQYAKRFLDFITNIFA
# [6] = target: T3, PI5P4Kβ (Homo sapiens, UniProt P78356); assay: PI5P4Kβ ADP-Glo kinase assay
# T3 sequence (P78356 1-416): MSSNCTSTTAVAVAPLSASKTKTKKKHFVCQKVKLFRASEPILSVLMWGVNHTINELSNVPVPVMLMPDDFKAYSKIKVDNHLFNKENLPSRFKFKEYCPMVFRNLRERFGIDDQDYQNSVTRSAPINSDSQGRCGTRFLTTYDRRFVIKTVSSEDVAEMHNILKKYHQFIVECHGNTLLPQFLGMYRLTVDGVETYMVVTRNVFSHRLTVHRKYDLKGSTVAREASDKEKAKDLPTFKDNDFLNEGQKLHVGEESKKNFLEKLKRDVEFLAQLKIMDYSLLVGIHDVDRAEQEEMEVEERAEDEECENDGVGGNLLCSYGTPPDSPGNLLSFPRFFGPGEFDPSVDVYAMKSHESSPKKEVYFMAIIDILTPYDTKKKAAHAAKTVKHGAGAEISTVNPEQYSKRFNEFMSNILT
# [7] = tested on: MDCK-MDR1 cells; assay: MDR1-MDCK bi-directional permeability and efflux; conditions: MDCK-MDR1 cells; A2B; 10 µM
# Experimental: (§2) MDR1-MDCK Permeability (bi-directional): was performed by Cyprotex Discovery. Briefly, compounds were administered at 10 µM (1% DMSO final) to the apical or basolateral side of a confluent monolayer of MDR1-MDCK cells, then incubated at 37 °C for 60 minutes before appearance on the opposite side of the monolayer was determined LC-MS/MS. The efflux ratio (ER) is calculated from the ratio of B-A to A-B permeabilities.
# [8] = target: T4, PI5P4Kγ-WT (Homo sapiens, UniProt Q8TBX8); assay: InCELL Pulse cellular target engagement (thermal stabilisation) assay; conditions: Hek293 cells stably expressing ePL-tagged PI5P4Kγ
# T4 sequence (Q8TBX8 1-421): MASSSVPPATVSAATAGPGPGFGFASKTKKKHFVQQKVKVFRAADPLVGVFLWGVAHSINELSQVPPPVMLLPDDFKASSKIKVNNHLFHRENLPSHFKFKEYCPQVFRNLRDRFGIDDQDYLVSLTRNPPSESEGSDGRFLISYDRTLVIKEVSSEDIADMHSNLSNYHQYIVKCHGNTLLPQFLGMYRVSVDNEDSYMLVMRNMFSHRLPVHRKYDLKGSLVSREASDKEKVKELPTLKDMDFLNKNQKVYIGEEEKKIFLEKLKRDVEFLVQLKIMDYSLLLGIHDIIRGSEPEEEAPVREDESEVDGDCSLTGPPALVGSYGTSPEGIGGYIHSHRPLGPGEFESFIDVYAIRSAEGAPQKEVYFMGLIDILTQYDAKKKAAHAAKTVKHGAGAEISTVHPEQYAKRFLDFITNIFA
# [9] = tested on: PI5P4Kγ+; conditions: ratio PI5P4Kα IC50 / PI5P4Kγ+ IC50, ADP-Glo
# [10] = tested on: MDR1 (P-gp); assay: MDR1-MDCK bi-directional permeability and efflux; conditions: dog, MDCK-MDR1
# Experimental: as §2
# [11] = ADP-Glo pIC50 PI5P4Kγ+, Table S1, two decimals, asterisk not explained
# [12] = PI5P4Kγ+ pIC50, ADP-Glo, footnote a: inconsistent replicates, value shown is upper limit
solubility at 2 h [1] [µM],half-life at 1 µM [2] [min],PI5P4Kα pIC50 [3],IC50 [4] [µM],"IC50 [5, 11] [µM]","IC50 [5, 12] [µM]",ADP-Glo pIC50 PI5P4Kβ [6],P app (A2B) [7],InCELL Pulse pIC50 PI5P4Kγ-WT [8],Fold-selectivity (α IC50/γ IC50) [9],"efflux ratio at 60 min, 10 µM [10]","ADP-Glo pIC50 PI5P4Kα ([3]; Table S1, two decimals, asterisk not explained)",SMILES
10,70.8,6.5,0.355,0.0117,0.0126,–,1.33 10^−6 cm s^−1,7.4,–,–,–,CS(=O)(=O)c1ccc(Nc2ncnc3cc(-c4cccnc4Cl)sc23)cc1 [Compound 37]
10,0.44,7.3,0.0468,0.00871,0.00794,–,12.9 10^−6 cm s^−1,7.3,–,–,–,CSc1ccc(Nc2ncnc3cc(-c4cccnc4Cl)sc23)cc1 [Compound 39]
3,1.94,7.0,–,0.0525,0.0501,–,9.95 10^−6 cm s^−1,–,1.9,0.91,7.01,Cc1ncccc1-c1cc2ncnc(Nc3ccc(C4CC4)cc3)c2s1 [Compound 38]

# Second part, the molecule before the results:
SMILES,solubility at 2 h [1] [µM],half-life at 1 µM [2] [min],PI5P4Kα pIC50 [3],IC50 [4] [µM],"IC50 [5, 11] [µM]","IC50 [5, 12] [µM]",ADP-Glo pIC50 PI5P4Kβ [6],P app (A2B) [7],InCELL Pulse pIC50 PI5P4Kγ-WT [8],Fold-selectivity (α IC50/γ IC50) [9],"efflux ratio at 60 min, 10 µM [10]","ADP-Glo pIC50 PI5P4Kα ([3]; Table S1, two decimals, asterisk not explained)"
Cc1ncccc1-c1cc2c(Nc3ccc(S(C)(=O)=O)cc3)ncnc2s1 [Compound 17],10,35.5,6.0,1.12,0.0209,0.02,4.7,1.33 10^−6 cm s^−1,7.3,–,–,–
Cn1cc(-c2cc3c(Nc4ccc(S(C)(=O)=O)cc4)ncnc3s2)cn1 [Compound 8],30,73.3,5.2,–,0.0363,0.0398,4.9,2.88 10^−6 cm s^−1,6.7,–,–,–
Cc1ccncc1-c1cc2c(Nc3ccc(S(C)(=O)=O)cc3)ncnc2s1 [Compound 14],30,8.2,6.0,–,0.0123,0.0126,–,2.45 10^−6 cm s^−1,–,79,34.1,–
CS(=O)(=O)c1ccc(Nc2ncnc3scc(Cl)c23)cc1 [Compound 32],10,51.4,<6.2,–,–,0.0501,–,14.2 10^−6 cm s^−1,–,–,3.7,–
CS(=O)(=O)c1ccc(Nc2ncnc3sc(-c4cccnc4Cl)cc23)cc1 [Compound 15],3,383,6.2,0.708,0.0129,0.0126,4.9,4.73 10^−6 cm s^−1,7.1,–,–,–
Cc1cnccc1-c1cc2c(Nc3ccc(S(C)(=O)=O)cc3)ncnc2s1 [Compound 10],30,9.23,6.2,0.708,0.0129,0.0126,4.9,3.13 10^−6 cm s^−1,7.7,–,–,–
